Entries after “also recorded” stand apart in the source; their conditions may differ. Like-named read-outs stand apart in the source and are kept apart here.
Columns and labels:
K14.R125G keratinocytes = experiment: Epithelial sheet assay (dispase assay); type: cell-based, human; details: 1 μM, high calcium medium, 24 h
Experimental: (§1) Prior to the assay, cells were washed twice with 1.2 mM Ca^2+ PBS and incubated for 30 min at 37° C. with Dispase II (Roche Diagnostics, 9 mg/ml in 1:2 HEPES buffer:keratinocytes medium, 2 mM Ca^2+). Free-floating cell sheets were transferred to a 15 ml Falcon tube containing 5 ml 1.2 mM Ca^2+ PBS and subjected to 25 rpm overhead rotation (WiseMix overhead rotator, Witeg Labortechnik, Germany) for 1 min at room temperature. Image acquisition was done using Nikon SMZ 1500 binocular and image processing by ImageJ.

K14.R125C keratinocytes [1] = experiment: Epithelial sheet assay (dispase assay); type: cell-based, human; details: 1 μM, high calcium medium, 24 h, vs vehicle-treated monolayers
Experimental: as §1

K14.R125C keratinocytes [2] = experiment: Keratin aggregates by K5 immunofluorescence microscopy; type: cell-based, human; details: 0.8 μM PKC412, 24 h; DMSO-treated cells mean=56%
Experimental: Skin samples were obtained for diagnostic purposes. After written informed consent, primary keratinocytes were isolated from the remaining tissue. […] Keratinocytes were grown in low calcium Gibco™ Keratinocyte-SFM Medium supplemented with L-glutamine, EGF and BPE (LCM, Thermo Fisher Scientific) and cultured at 37° C., 5% CO2 and 90% humidity. To induce cell-cell contacts, LCM was changed to high calcium medium (HCM, 1.2 mM CaCl2) and cells were incubated for 24 h.

K18 R90C mice [3] = experiment: Fas-induced liver injury; type: in vivo, mouse; details: for increase in serum alanine aminotransferase (ALT) level after Fas treatment: single 1× pretreatment (PKC412 25 mg/kg, PP2 1 mg/kg, Vem 1 mg/kg), Fas antibody 0.25 μg/g; for hepatocyte keratin filament organization: PP2 1 mg/kg ip daily 4d
Experimental: (§3) All mouse experiments were performed using a protocol approved by Rutgers University Institutional Animal Care and Use Committee. Previously described 4-6 weeks-old F22 male and female mice that express the human K18 R90C mutant (FVB/N background) were used. […] For immunofluorescence experiments, mouse livers were collected after CO2 euthanasia and embedded in optimum-cutting-temperature compound then stored (−80° C.). For Fas experiments, mice were treated by intraperitoneal administration of Fas antibody (0.15 μg/g body weight; BD Pharmingen). After 5 h, mice were sacrificed followed by collection of blood and liver. Livers were fixed with 10% formalin and analyzed by hematoxylin-eosin (H&E) staining or TUNEL assay. A hemorrhage score was calculated using QuPath (Quantitative Pathology & Bioimage Analysis) and ImageJ software. Apoptosis was estimated using TUNEL assay detection kit (ApopTag Peroxidase In Situ Apoptosis; Sigma Aldrich). Fluorescence images were acquired with the same exposure time and used to count the apoptotic nuclei. Serum alanine aminotransferase (ALT) levels were determined using the Liquid ALT Reagent Set (Pointe Scientific). For the acetaminophen (APAP) experiments, the liver histopathology score was determined using a 0-4 scoring system. Scoring was conducted by two scorers blinded to treatment conditions, and the average score was used.

[4] = tested on: normal human keratinocytes (NHK); experiment: Electrochemical impedance spectroscopy on multielectrode arrays; type: cell-based; details: 24 h treatment; read-out: EC50 (impedance concentration response curve)
From the text: Skin samples were obtained for diagnostic purposes. After written informed consent, primary keratinocytes were isolated from the remaining tissue. Immortalized human control (NHK, normal human keratinocytes) and EBS keratinocytes (K14.R125C, K14.R125G, K14.N123S, K14.Y415H, K5.G138E/L175F and K5.E477D) were generated (Has et al. (2018) The Position of Targeted Next-generation Sequencing in Epidermolysis Bullosa Diagnosis. Acta Dermato-Venereologica 98:437-40; He Y, Maier K, Leppert J, Hausser I, Schwieger-Briel A, Weibel L, et al. (2016) Monoallelic Mutations in the Translation Initiation Codon of KLHL24 Cause Skin Fragility. Am J Hum Genet 99:1395-404). Keratinocytes were grown in low calcium Gibco™ Keratinocyte-SFM Medium supplemented with L-glutamine, EGF and BPE (LCM, Thermo Fisher Scientific) and cultured at 37° C., 5% CO2 and 90% humidity. […]
Impedimetric measurements on NHK and K14.R125C keratinocytes were performed as previously described. […] Impedance spectra (500 Hz-5 MHz) were automatically recorded every 30 min using the impedance measurement platform based on an Agilent 4294A high-precision impedance analyzer (Agilent Technologies) and the self-developed controlling software IMAT advanced. […] The cell signal (relative impedance) was determined with the self-developed analysis software IDAT v3.7.2.

desmoplakin (DSP) = experiment: Desmoplakin localization by immunofluorescence microscopy; type: cell-based, human; details: 1.2 mM CaCl2, vs vehicle-treated cells
Experimental: Human keratinocytes grown on coverslips were fixed for 5 min in methanol (−20° C.) and 30 sec in acetone (−20° C.). Primary antibodies were diluted in 1% (w/v) BSA in TBS and incubated overnight at 4° C. in a humid chamber. The next day, coverslips were washed in TBS and incubated with the fluorophore-conjugated secondary antibody for 30 min at RT in the dark. DNA was stained with DAPI. Finally, coverslips were washed three times in TBS, rinsed briefly in aqua bidest and mounted with ProLong® Gold antifade reagent (Invitrogen). Images or Z-stacks were acquired with a confocal LSM 780 (Carl Zeiss) equipped with 40×/1.3 NA or 63×/1.4 NA oil immersion objectives and an AxioCam Mrm (Carl Zeiss). Image analysis and maximum intensity projections of Z-stacks was performed using Zen 2012 Blue software (Carl Zeiss). ImageJ was used for image processing.

[5] = tested on: RXXpS/pT AGC-kinase motif, P-K17 S44, P-DSP S165/S166, P-DSP S2849; experiment: Immunoblot with phospho-epitope specific antibodies; type: cell-based, human
From the text: Skin samples were obtained for diagnostic purposes. After written informed consent, primary keratinocytes were isolated from the remaining tissue. Immortalized human control (NHK, normal human keratinocytes) and EBS keratinocytes (K14.R125C, K14.R125G, K14.N123S, K14.Y415H, K5.G138E/L175F and K5.E477D) were generated (Has et al. (2018) The Position of Targeted Next-generation Sequencing in Epidermolysis Bullosa Diagnosis. Acta Dermato-Venereologica 98:437-40; He Y, Maier K, Leppert J, Hausser I, Schwieger-Briel A, Weibel L, et al. (2016) Monoallelic Mutations in the Translation Initiation Codon of KLHL24 Cause Skin Fragility. Am J Hum Genet 99:1395-404). Keratinocytes were grown in low calcium Gibco™ Keratinocyte-SFM Medium supplemented with L-glutamine, EGF and BPE (LCM, Thermo Fisher Scientific) and cultured at 37° C., 5% CO2 and 90% humidity. To induce cell-cell contacts, LCM was changed to high calcium medium (HCM, 1.2 mM CaCl2) and cells were incubated for 24 h.
To separate proteins under denaturing conditions, sodium dodecyl sulfate polyacrylamide gel electrophoresis (SDS-PAGE) was performed. Proteins were transferred to nitrocellulose membranes (VWR) using a semi-dry blotter (Armin Baack Labortechnik). Membranes were blocked using 3% (w/v) skim milk/TBS with Tween (TBST) or 3% (w/v) bovine serum albumin (BSA)/TBST and subsequently probed with the appropriate antibodies. Chemiluminescence was detected using ChemoCam Imager (Intas). Band intensity was quantified using ImageJ software.

[6] = healthy volunteers, single oral dose (50 mg) as microemulsion; cited from earlier work
K18 and K8 [7] = details: based on prior studies; cited from earlier work
K18 R90C mice [8] = tested on: K18 R90C mice
Experimental: as §3

A549 cells = details: PP2 10 μM, A549 cells expressing K18 R90C
Experimental: (§2) A549 cells were cultured using Ham's F-12K medium (Thermo Fisher Scientific) supplemented with 10% fetal bovine serum (Sigma Aldrich) and 1% penicillin and 10,000 U/mL streptomycin (Life Technologies).

K18 and K8 [9] = experiment: K8/K18 phosphorylation by mass spectrometry and immunoblot; type: cell-based, human
Experimental: Cell and liver samples were solubilized using a Dounce homogenizer in 2% SDS-containing PBS supplemented with protease inhibitor (Thermo Fisher Scientific), then sonicated 80× (is pulse, intensity 70) (Fisher Scientific; Model: FB50). Lysates were pelleted (16,000 g×10 min/20° C.) and the supernatant was used for subsequent analysis. Equal amounts of protein were separated by SDS-polyacrylamide gel electrophoresis (PAGE) then transferred to polyvinylidene fluoride membranes (Bio-Rad) followed by immunoblotting. For immunoprecipitation, K18 R90C-transduced A549 cells were homogenized in PBS containing 1% Nonidet P-40 (NP40), protease inhibitors, and okadaic acid (Cayman Chemical; 1 μg/mL). […] For mass spectrometry, conjugated beads were suspended in PBS-buffered 8M urea to yield ˜6 g (in 60 μl urea-containing buffer). Samples were separated SDS-PAGE, followed by in-gel tryptic digestion then LC-MS/MS analysis. Peptides were identified by the Mass Spectrometry Facility at Rutgers University.

[10] = tested on: GFP-K18 R90C lentivirus-transduced A549 cells; experiment: Keratin dots-to-filaments assay (high-throughput screen and validation); type: cell-based, human; details: 5 μM, 48 h
Experimental: The screening strategy was performed as described. In brief, human A549 lung adenocarcinoma cells (American Type Culture Collection) were seeded into six-well plates overnight and then transduced with K8 WT and either the GFP-tagged K18 WT or GFP-tagged K18 R90C lentivirus for 2d. A549 cells were selected for the screening assay because of their high transduction efficiency and readily visualized keratin filaments. The transduced cells were seeded into 384-well plates for 1d followed by addition of compounds from the Navigator Pathways (Center for Chemical Genomics, University of Michigan). After 48 h, cells were fixed counterstained with 4′,6-diamidino-2-phenylindole (DAPI; Invitrogen). Images were taken with the Image Xpress Micro XLS High Content Imaging System then analyzed using MetaXpress software (Molecular Devices). Compounds that decrease the number of keratin dots/cell and promote keratin filament formation were selected for secondary validation. 945 compounds from the Navigator Pathways library were screened. The library consists of several daughter sets that cover a range of pathways including Autophagy, Wnt, Epigenetics, Protein Kinases, Proteases, Redox, Cannabinoids, and Natural Products.

[11] = PP2 content in liver and serum by UPLC-UV; type: in vivo, mouse
Experimental: Mice were sacrificed and livers were harvested at the indicated times. […] The column was washed once with 1 mL 100% methanol and eluted with 1 mL 5% NH4OH in methanol. […] The evaporated sample was resuspended in […] injection solvent [80% (5% ammonium hydroxide in methanol)+20% (10 mM ammonium formate+0.1% formic acid)], and […] was injected for ultra-performance liquid chromatography (UPLC). […] The supernatant was transferred to new tubes then processed further for SPE and UPLC exactly as carried out for the liver tissue extracts.
A Waters ACQUITY UPLC system equipped with Empower software and H-Class PLUS (CH-A) Core was used. […] The column was eluted at flow rate of 0.5 ml/min with linear gradients of solvents A and B (A, 10 mM ammonium formate, 0.1% formic acid in water; B, 0.1% formic acid in methanol).

[12] = tested on: GFP-K18 R90C transduced A549 cells; experiment: IFN-γ/FasL-induced apoptosis in cultured cells; type: cell-based, human
Experimental: as §2

[13] = K18 R90C mice, PP2 1 mg/kg intraperitoneally daily for 4d, female and male
Experimental: as §3

[14] = PKC412 25 mg/kg ip daily 4d, male and female, Fas challenge
[15] = K18 R90C-expressing A549 cells, mass spectrometry, PP2 vs DMSO
[16] = female mice, PP2 1 mg/kg ip 4d, Fas antibody 0.15 μg/g 5 h
[17] = male mice, PP2 1 mg/kg ip 4d, Fas antibody 0.15 μg/g 5 h

Compound: 4′-N-benzoylstaurosporine [PKC412]
- fragility of mutant epithelial sheets (K14.R125G keratinocytes): rescued fragility
- epithelial monolayer integrity after rotation (K14.R125C keratinocytes [1]): remained fully intact
- keratin aggregate-containing cells (mean) (K14.R125C keratinocytes [2]): 13%
- protection from Fas-induced liver injury, male versus female (K18 R90C mice [3]; PKC412 25 mg/kg ip daily 4d, Fas antibody 0.15 μg/g 5 h): equally protects both sexes
- ALT levels (K18 R90C mice [3]; [14]): significantly reduced
- extent of hemorrhage (K18 R90C mice [3]; [14]): significantly reduced
- increase in serum alanine aminotransferase (ALT) level after Fas treatment (K18 R90C mice [3]; male mice): significantly reduced
- EC50 [4]: 0.084 µM
- DSP at sites of cell-cell contacts (desmoplakin (DSP)): significant increase
- phosphorylation at AGC-kinase motif RXXpS/pT ([5]; EBS K14.R125C cells vs vehicle-treated): significant reduction in phosphorylation
- K17 phosphorylation at P-S44 ([5]; NHK and K14.R125C cells vs vehicle): significantly reduced
- DSP phosphorylation at S165 and S166 ([5]; vs DMSO-treated cells): significantly reduced
- DSP phosphorylation at S2849 ([5]; vs DMSO-treated cells): significantly reduced
- tolerability, single oral dose [6]: well tolerated
- K18 S34 and K8 S432 phosphorylation (K18 and K8 [7]): no effect

Compound: CC(C)(C)n1nc(-c2ccc(Cl)cc2)c2c(N)ncnc21 [PP2, 1-tert-butyl-3-(4-chlorophenyl)-1H-pyrazolo[3,4-d]pyrimidin-4-amine]
- tested necrosis markers (K18 R90C mice [8]; PP2 vs vehicle): no significant difference
- histologic protection (K18 R90C mice [8]; male compared with female PP2-treated mice): significant histologic protection
- tolerability in cells (A549 cells): not well tolerated
- okadaic acid-induced hyperphosphorylation of K18/K8 (K18 and K8 [9]; A549 cells, PP2 5 μM 48 h, okadaic acid 1 μg/mL): reversed
- decrease of global phosphorylation of K8 (K18 and K8 [9]; [15]): 38%
- decrease of global phosphorylation of K18 (K18 and K8 [9]; [15]): 43%
- K18 S34 and K8 S432 phosphorylation (K18 and K8 [9]; immunoblot, PP2 5 μM 48 h): significant decrease
- percentage of cells with keratin mutant aggregates [10]: significantly decreased
- PP2 in serum ([11]; 1 mg/kg, 1 h after administration): no detectable PP2
- PP2 in liver ([11]; after 4 h, male or female mice): no detectable PP2
- PP2 levels in male mouse liver compared to female mouse liver ([11]; as a function of time): significantly higher
- PP2 in liver ([11]; male and female FVB/N mice, 1 mg/kg, 1 h after administration): detected
- liver TUNEL-positive cells (K18 R90C mice [3]; PP2 1 mg/kg ip 4d, Fas challenge): fewer TUNEL-positive cells
- SRC phosphorylation at stimulatory phospho-site Y416 in liver (K18 R90C mice [3]; female livers): not female
- hepatocyte keratin filament organization (K18 R90C mice [3]; female livers): not female
- ALT levels (K18 R90C mice [3]; [16]): not female
- parenchymal liver hemorrhage (K18 R90C mice [3]; [16]): not female
- SRC phosphorylation at stimulatory phospho-site Y416 in liver (K18 R90C mice [3]; male livers): decreased
- hepatocyte keratin filament organization (K18 R90C mice [3]; male livers): normalized keratin filaments
- ALT levels (K18 R90C mice [3]; [17]): improved
- parenchymal liver hemorrhage (K18 R90C mice [3]; [17]): improved
- increase in serum alanine aminotransferase (ALT) level after Fas treatment (K18 R90C mice [3]; male mice): significantly reduced
- induction of apoptosis under basal non-Fas condition (TUNEL) ([12]; 5 μM, no Fas challenge): does not induce apoptosis
- cleaved caspases 3 and 7 ([12]; PP2 5 μM 48 h then IFN-γ and FasL): decreased presence
- TUNEL-positive cells ([12]; PP2 5 μM 48 h then IFN-γ and FasL, without PP2 37%): 8%
- body or liver weight [13]: does not have an effect; also recorded: no significant effect
